Key:
[1] = test system: LPS-induced pulmonary neutrophilia; test: LPS-induced lung neutrophilia conscious ferret model; format: in vivo; settings: threshold emetic dose divided by ED50 for pulmonary neutrophilia
From the text: The conscious ferret model has been used to investigate anti-inflammatory, emetic and behavioral effects of PDE4 inhibitors when administered by the oral (p.o.) route. From these experiments, a therapeutic index (TI) for each PDE4 inhibitor may be determined. The TI has been calculated by dividing the threshold dose for causing emetic episodes and behavioral changes by the anti-inflammatory dose (dose that causes 50% inhibition of the LPS-induced neutrophilia). […]
Thirty minutes after p.o. dosing with compound or vehicle control, the ferrets were placed into sealed Perspex containers and exposed to an aerosol of LPS (100 µg/ml) for 10 minutes. […] Observation continued for a period of at least 2.5 hours post p.o. dosing and emetic episodes and behavioral changes were recorded. […]
The bronchoalveolar lavage (BAL) samples were centrifuged at 1,500 rpm for 5 minutes. […] From this, the total number of neutrophils in the BAL was determined.
• 1. % Inhibition of LPS-induced pulmonary neutrophilia. • 2. Emetic episodes - the number of vomits and retches were counted. • 3. […] Any behavioral changes were semi-quantified by applying a severity rating (mild, moderate or severe). • 4. The TI was calculated as the highest dose found to not cause emetic episodes divided by the lowest dose found to inhibit pulmonary neutrophilia by 50% or more.

conscious ferret = test: Emesis and behavioral changes in conscious ferrets after oral dosing; format: in vivo; settings: for Ataxia / Backward walking / Flattened posture / Lip licking / Mouth clawing / Panting / Retches / Salivation / Vomits: oral, (animals that responded/group)
Procedure: PDE4 inhibitors were administered orally (p.o.), at doses initially of […], but subsequently up to 30 mg/kg in order to establish whether the TI was 10 or higher, and/or at lower doses to establish the minimum dose to cause 50% inhibition of neutrophilia. Ferrets were fasted overnight but allowed free access to water. The animals were orally dosed with vehicle or PDE4 inhibitor using a 15 cm dosing needle that was passed down the back of the throat into the oesophagus. After dosing, the animals were returned to holding cages fitted with Perspex doors to allow observation, and given free access to water. After dosing, the animals were constantly observed and any emesis or behavioral changes were recorded. The animals were allowed access to food 60 to 90 minutes after p.o. dosing.
Thirty minutes after p.o. dosing with compound or vehicle control, the ferrets were placed into sealed Perspex containers and exposed to an aerosol of LPS (100 µg/ml) for 10 minutes. Aerosols of LPS were generated by a nebulizer (DeVilbiss, USA) and this was directed into the Perspex exposure chamber. Following a 10 minute exposure period, the animals were returned to the holding cages and allowed free access to water, and at a later stage, food. Observation continued for a period of at least 2.5 hours post p.o. dosing and emetic episodes and behavioral changes were recorded.
• 1. % Inhibition of LPS-induced pulmonary neutrophilia. • 2. Emetic episodes - the number of vomits and retches were counted. • 3. Behavioral changes - the following behavioral effects were noted: salivation, panting, mouth clawing, flattened posture, ataxia, arched back and backward walking. Any behavioral changes were semi-quantified by applying a severity rating (mild, moderate or severe). • 4. The TI was calculated as the highest dose found to not cause emetic episodes divided by the lowest dose found to inhibit pulmonary neutrophilia by 50% or more.
Numbers in parentheses refer to the number of animals that responded. The numbers of animals in each group range from 4 to 22.

human PDE2 = human PDE2 (Homo sapiens, UniProt O00408); test: PDE2 enzyme assay; format: biochemical; settings: from PDE inhibition data of Table 1
human PDE2, sequence (O00408 whole entry): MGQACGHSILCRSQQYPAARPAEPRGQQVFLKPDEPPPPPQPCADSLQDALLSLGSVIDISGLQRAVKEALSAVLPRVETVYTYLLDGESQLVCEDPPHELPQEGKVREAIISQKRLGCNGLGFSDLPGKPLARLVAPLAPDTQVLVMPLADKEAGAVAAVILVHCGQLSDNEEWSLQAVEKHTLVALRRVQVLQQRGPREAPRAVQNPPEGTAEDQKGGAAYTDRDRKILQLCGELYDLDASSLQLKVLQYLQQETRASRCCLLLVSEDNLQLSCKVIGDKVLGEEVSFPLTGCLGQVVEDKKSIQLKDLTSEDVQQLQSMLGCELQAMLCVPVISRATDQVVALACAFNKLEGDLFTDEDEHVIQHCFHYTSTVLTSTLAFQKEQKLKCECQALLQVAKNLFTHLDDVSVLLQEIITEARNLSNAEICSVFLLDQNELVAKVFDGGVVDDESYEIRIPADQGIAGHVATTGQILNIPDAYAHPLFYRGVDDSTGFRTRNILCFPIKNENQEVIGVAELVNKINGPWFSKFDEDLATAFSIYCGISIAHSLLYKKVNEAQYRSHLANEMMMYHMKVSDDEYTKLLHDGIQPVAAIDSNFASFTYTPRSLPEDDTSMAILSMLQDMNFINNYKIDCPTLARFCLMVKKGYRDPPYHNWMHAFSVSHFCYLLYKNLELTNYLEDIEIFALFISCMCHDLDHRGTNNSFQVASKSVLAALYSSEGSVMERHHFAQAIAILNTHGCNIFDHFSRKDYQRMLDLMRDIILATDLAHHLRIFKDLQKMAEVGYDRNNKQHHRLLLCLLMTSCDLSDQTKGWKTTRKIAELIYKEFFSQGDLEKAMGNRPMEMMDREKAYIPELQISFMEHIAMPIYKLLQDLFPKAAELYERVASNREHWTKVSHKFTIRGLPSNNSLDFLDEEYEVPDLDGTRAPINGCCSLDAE

For `CCOc1cc(C(CS(C)(=O)=O)N2C(=O)c3cccc(NC(C)=O)c3C2=O)ccc1OC` (single isomer, unassigned; (+)) [Compound A, (+)-2-[1-(3-ethoxy-4-methoxyphenyl)-2-methylsulfonylethyl]-4-acetylaminoisoindoline-1,3-dione], the Therapeutic index [1] was 12, the emetic episodes (conscious ferret; 10 mg/kg p.o., in 2/6 ferrets) was “some retching but no frank emesis” and the emesis (conscious ferret; 30 mg/kg p.o. (highest dose tested), in 3/4 animals) was “moderate to marked emesis”. For the same molecule, the “behavioral changes (flattened posture, lip licking and backward walking), severity” value (conscious ferret; 0.1-3 mg/kg, p.o.) was “mild”, the “emetic episodes (retching and vomiting)” value (conscious ferret; 0.1-3 mg/kg, p.o.) was “no emetic episodes” and the Ataxia (conscious ferret; 0.1 mg/kg) was “None”. The Backward walking (conscious ferret; 0.1 mg/kg) was “Mild (3/5)”, the Flattened posture (conscious ferret; 0.1 mg/kg) was “Mild (2/5)” and the Lip licking (conscious ferret; 0.1 mg/kg) was “Mild (4/5)”. For the same molecule, the Mouth clawing (conscious ferret; 0.1 mg/kg) was “None”, the Panting (conscious ferret; 0.1 mg/kg) was “None” and the Retches (conscious ferret; 0.1 mg/kg) was “None”. The Salivation (conscious ferret; 0.1 mg/kg) was “None”, the Vomits (conscious ferret; 0.1 mg/kg) was “None” and the Ataxia (conscious ferret; 0.3 mg/kg) was “None”. For the same molecule, the Backward walking (conscious ferret; 0.3 mg/kg) was “Mild (4/6)”, the Flattened posture (conscious ferret; 0.3 mg/kg) was “Mild (2/6)” and the Lip licking (conscious ferret; 0.3 mg/kg) was “Mild (3/6)”. The Mouth clawing (conscious ferret; 0.3 mg/kg) was “None”, the Panting (conscious ferret; 0.3 mg/kg) was “None” and the Retches (conscious ferret; 0.3 mg/kg) was “None”. The Salivation (conscious ferret; 0.3 mg/kg) was “None”, the Vomits (conscious ferret; 0.3 mg/kg) was “None” and the Ataxia (conscious ferret; 1.0 mg/kg) was “None”. The Backward walking (conscious ferret; 1.0 mg/kg) was “Mild (4/6)”, the Flattened posture (conscious ferret; 1.0 mg/kg) was “Mild (2/6)” and the Lip licking (conscious ferret; 1.0 mg/kg) was “Mild (6/6)”. The Mouth clawing (conscious ferret; 1.0 mg/kg) was “None”, the Panting (conscious ferret; 1.0 mg/kg) was “None” and the Retches (conscious ferret; 1.0 mg/kg) was “None”. The Salivation (conscious ferret; 1.0 mg/kg) was “None”, the Vomits (conscious ferret; 1.0 mg/kg) was “None” and the Ataxia (conscious ferret; 3.0 mg/kg) was “None”. The Backward walking (conscious ferret; 3.0 mg/kg) was “Moderate (5/8)”, the Flattened posture (conscious ferret; 3.0 mg/kg) was “Marked (7/8)” and the Lip licking (conscious ferret; 3.0 mg/kg) was “Mild (2/8)”. The Mouth clawing (conscious ferret; 3.0 mg/kg) was “Mild (1/8)”, the Panting (conscious ferret; 3.0 mg/kg) was “None” and the Retches (conscious ferret; 3.0 mg/kg) was “None”. The Salivation (conscious ferret; 3.0 mg/kg) was “None”, the Vomits (conscious ferret; 3.0 mg/kg) was “None” and the Ataxia (conscious ferret; 10 mg/kg) was “None”. The Backward walking (conscious ferret; 10 mg/kg) was “Marked (6/6)”, the Flattened posture (conscious ferret; 10 mg/kg) was “Marked (6/6)” and the Lip licking (conscious ferret; 10 mg/kg) was “Moderate (5/6)”. For the same molecule, the Mouth clawing (conscious ferret; 10 mg/kg) was “Mild (1/6)”, the Panting (conscious ferret; 10 mg/kg) was “None” and the Retches (conscious ferret; 10 mg/kg) was “Mild (2/6)”. The Salivation (conscious ferret; 10 mg/kg) was “Mild (1/6)”, the Vomits (conscious ferret; 10 mg/kg) was “None” and the Ataxia (conscious ferret; 30 mg/kg) was “Mild (3/4)”. For the same molecule, the Backward walking (conscious ferret; 30 mg/kg) was “Mild (2/4)”, the Flattened posture (conscious ferret; 30 mg/kg) was “Marked (4/4)” and the Lip licking (conscious ferret; 30 mg/kg) was “Moderate (4/4)”. The Mouth clawing (conscious ferret; 30 mg/kg) was “Marked (4/4)”, the Panting (conscious ferret; 30 mg/kg) was “Mild (1/4)” and the Retches (conscious ferret; 30 mg/kg) was “Marked (3/4)”. The Salivation (conscious ferret; 30 mg/kg) was “Moderate (3/4)”, the Vomits (conscious ferret; 30 mg/kg) was “Moderate (3/4)” and the “PDE Specificity Ratio PDE4/PDE2” value (human PDE2) was over 10000 fold.

Source: EP2687213B1, “Solid forms comprising (+)-2-[1-(3-ethoxy-4-methoxyphenyl)-2-methylsulfonylethyl]-4-acetylaminoisoindoline-1,3-dione, compositions thereof, and uses thereof” (CELGENE CORPORATION, priority 2008, dated 2009)
